{"source": "paper PMC6891570", "about": "“Yuccalechins A–C from the Yucca schidigera Roezl ex Ortgies Bark: Elucidation of the Relative and Absolute Configurations of Three New Spirobiflavonoids and Their Cholinesterase Inhibitory Activities” (Molecules, 2019)", "key": {"[1]": {"molecular_target": "T1, horse serum BChE (EC 3.1.1.8) (Equus caballus, UniProt P81908)", "T1 construct": "horse serum BChE (EC 3.1.1.8, Sigma, St. Louis, MO, USA) were used as the enzyme sources; purchased Sigma, St. Louis, MO, USA; host or cells: horse serum", "T1 sequence (P81908 whole entry)": "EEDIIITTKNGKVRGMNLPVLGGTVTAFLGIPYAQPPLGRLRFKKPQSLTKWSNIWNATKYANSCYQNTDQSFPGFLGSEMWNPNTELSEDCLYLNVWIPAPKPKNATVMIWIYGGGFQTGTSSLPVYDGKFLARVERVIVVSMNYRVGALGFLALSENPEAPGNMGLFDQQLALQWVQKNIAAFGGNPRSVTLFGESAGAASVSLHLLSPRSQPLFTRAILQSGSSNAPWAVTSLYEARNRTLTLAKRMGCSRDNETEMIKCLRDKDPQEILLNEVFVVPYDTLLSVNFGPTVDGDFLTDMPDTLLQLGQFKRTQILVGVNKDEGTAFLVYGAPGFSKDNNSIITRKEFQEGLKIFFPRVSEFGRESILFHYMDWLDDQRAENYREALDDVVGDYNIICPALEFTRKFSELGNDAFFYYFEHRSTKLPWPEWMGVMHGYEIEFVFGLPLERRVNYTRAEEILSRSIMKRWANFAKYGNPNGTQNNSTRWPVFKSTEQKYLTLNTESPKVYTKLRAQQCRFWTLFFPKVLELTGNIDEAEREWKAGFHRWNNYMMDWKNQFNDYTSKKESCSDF", "assay": "BChE inhibition, modified Ellman's spectrophotometric assay", "format": "biochemical", "settings": "for inhibition at 1000 µM: read-out: Inhibition (% ± S.D.) BChE", "description": "(§1) The modified Ellman’s assay was used to measure the anti-acetylcholinesterase and anti-butyrylcholinesterase activities of 13, 26, and 29 [81, 82].\n(§2) AChE and BChE inhibitory activities were measured by a slightly modified spectrophotometric method of Ellman et al.. Electric eel AChE (Type-VI-S, EC 3.1.1.7, Sigma, St. Louis, MO, USA) and horse serum BChE (EC 3.1.1.8, Sigma, St. Louis, MO, USA) were used as the enzyme sources, while acetylthiocholine iodide and butyrylthiocholine chloride (Sigma, St. Louis, MO, USA) were employed as the substrates of the reaction. 5,5′-Dithio-bis(2-nitrobenzoic) acid (DTNB, Sigma, St. Louis, MO, USA) was used to measure the anticholinesterase activity as the coloring agent. All reagents and conditions were exactly the same as described in our previous publication. Hydrolysis of acetylthiocholine iodide/butyrylthiocholine chloride was monitored by the formation of the yellow 5-thio-2-nitrobenzoate anion, as a result of the reaction of DTNB with thiocholines, catalyzed by enzymes at 412 nm utilizing a 96-well microplate reader (VersaMax Molecular Devices, USA). The measurements and calculations were evaluated by using Softmax PRO 4.3.2.LS software. The percent inhibitions of AChE/BChE were determined by comparing the reaction rates of the samples relative to a blank sample (ethanol in phosphate buffer pH = 8), using the formula (E − S)/E × 100, where E is the activity of enzyme without test sample, and S is the activity of the enzyme with the test sample. The experiments were conducted in six replicates. Galantamine (Sigma, St. Louis, MO, USA) was used as the reference."}, "[2]": {"molecular_target": "T2, Electric eel AChE (Type-VI-S, EC 3.1.1.7) (Electrophorus electricus, UniProt O42275)", "T2 construct": "purchased Sigma, St. Louis, MO, USA Type-VI-S (catalogue number not given)", "T2 sequence (O42275 24-633)": "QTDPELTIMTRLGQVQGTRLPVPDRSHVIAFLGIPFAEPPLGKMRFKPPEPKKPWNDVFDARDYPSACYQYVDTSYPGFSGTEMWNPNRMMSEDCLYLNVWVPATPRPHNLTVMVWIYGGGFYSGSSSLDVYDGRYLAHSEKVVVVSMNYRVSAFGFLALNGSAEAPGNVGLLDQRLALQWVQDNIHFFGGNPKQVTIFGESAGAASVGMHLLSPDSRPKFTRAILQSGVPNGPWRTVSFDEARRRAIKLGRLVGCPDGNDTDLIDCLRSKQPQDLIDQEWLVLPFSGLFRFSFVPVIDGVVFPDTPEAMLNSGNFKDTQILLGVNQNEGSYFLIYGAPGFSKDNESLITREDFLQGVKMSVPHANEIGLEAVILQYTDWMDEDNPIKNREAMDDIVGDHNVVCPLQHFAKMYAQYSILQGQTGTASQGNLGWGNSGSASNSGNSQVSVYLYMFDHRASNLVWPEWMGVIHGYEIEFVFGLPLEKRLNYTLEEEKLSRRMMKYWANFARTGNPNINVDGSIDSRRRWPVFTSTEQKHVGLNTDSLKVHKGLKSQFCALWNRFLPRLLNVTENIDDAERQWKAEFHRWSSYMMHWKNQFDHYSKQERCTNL", "assay": "biochemical", "format": "biochemical", "settings": "for inhibition at 1000 µM: at 1000 µM final concentration, six replicates, read-out: Inhibition (% ± S.D.) AChE", "description": "as §1, §2"}, "AChE/BChE": {"system": "AChE/BChE", "settings": "previous results; cited from earlier work"}, "[3]": {"settings": "at 1000 µM final concentration, six replicates"}}, "note": "Read-outs that look alike come from different tables or passages of the source.", "data": [{"smiles": "COc1c(O)cc(/C=C/c2cc(O)cc(O)c2)cc1O", "note": "[Compound 13, trans-3,3′,5,5′-tetrahydroxy-4′-methoxystilbene]", "values": [{"measurement": "activity against BChE (in words)", "setting": "[1]", "value": "almost inactive"}, {"measurement": "inhibition at 1000 µM", "setting": "[1]; [3]", "value": "25.2 ± 2.58", "unit": "%"}, {"measurement": "activity against AChE (in words)", "setting": "[2]", "value": "almost inactive"}, {"measurement": "inhibition at 1000 µM", "setting": "[2]", "value": "19.3 ± 3.03", "unit": "%"}]}, {"smiles": "Oc1ccc(/C=C/c2cc(O)cc(O)c2)cc1", "note": "[Compound 21, Trans-resveratrol]", "values": [{"measurement": "cholinesterase inhibitory activity (in words)", "setting": "AChE/BChE", "value": "very weak activity"}]}, {"smiles": "Oc1cc(O)cc(/C=C/c2ccc(O)c(O)c2)c1", "note": "[piceatannol, trans-3,3′,4′,5-tetrahydroxystilbene, reference compound]", "values": [{"measurement": "cholinesterase inhibitory activity (in words)", "setting": "AChE/BChE", "value": "much higher, selective against BChE, activity"}]}, {"smiles": "O=C1Oc2cc(O)c3c(c2C12c1c(O)cc(O)cc1OC2c1ccc(O)cc1)OC(c1ccc(O)cc1)C(O)C3", "note": "[Compound 26, (2S,2′R,3R,3′S)-3′,4,5′,6-tetrahydroxy-2,2′-bis(4-hydroxyphenyl)-3′,4′-dihydro-2H,2′H,8′H-spiro[benzofuran-3,9′-furo.[2,3-h]chromen]-8′-one]", "values": [{"measurement": "inhibition at 1000 µM", "setting": "[1]; [3]", "value": "48.5 ± 2.29", "unit": "%"}, {"measurement": "IC50", "setting": "[2]", "value": 294, "unit": "µM"}, {"measurement": "activity against AChE (in words)", "setting": "[2]", "value": "very low and selective activities"}, {"measurement": "inhibition at 1000 µM", "setting": "[2]", "value": "80.5 ± 1.22", "unit": "%"}]}, {"smiles": "COc1ccc2c3c1O[C@H]1C[C@@H](O)C=C[C@@]31CCN(C)C2", "note": "[Reference, Galantamine HBr, reference compound]", "values": [{"measurement": "inhibition at 1000 µM", "setting": "[1]", "value": "91.5 ± 1.63", "unit": "%"}]}, {"smiles": "O=C1Oc2cc(O)c3c(c2[C@]12c1c(O)cc(O)cc1O[C@H]2c1ccc(O)cc1)O[C@H](c1ccc(O)cc1)[C@@H](O)C3", "note": "[Compound 29, (2S,2′R,3S,3′S)-3′,4,5′,6-tetrahydroxy-2,2′-bis(4-hydroxyphenyl)-3′,4′-dihydro-2H,2′H,8′H-spiro[benzofuran-3,9′-furo[2,3-h]chromen]-8′-one]", "values": [{"measurement": "inhibition at 1000 µM", "setting": "[1]; [3]", "value": "33.4 ± 1.37", "unit": "%"}, {"measurement": "IC50", "setting": "[2]", "value": 655, "unit": "µM"}, {"measurement": "activity against AChE (in words)", "setting": "[2]", "value": "very low and selective activities"}, {"measurement": "inhibition at 1000 µM", "setting": "[2]", "value": "52.5 ± 2.6", "unit": "%"}]}]}
